From publication PMC7064328 (Environmental Health Perspectives, 2020)

Legend:
Assay type in all cases: in vivo, mouse (CD-1)
Pregnant CD-1 mice [1] = test: Maternal indices: dam body weight, gestational weight gain, liver and kidney weight after daily oral gavage E1.5 to E11.5 or E17.5; settings: for E0.5 weight: baseline
Procedure: Naïve female CD-1 mice between 7.5 and 15.5 wk of age from the NIEHS colony were bred in-house on a single night, and copulatory plug–positive females were identified on embryonic day (E) 0.5. Pregnant dams were singly housed in ventilated polypropylene cages and received nesting materials, National Institutes of Health (NIH)-31 diet (Zeigler Bros., Inc.) and reverse osmosis deionized (RODI) water ad libitum. Animals were housed in humidity- and temperature-controlled rooms with 25°C and 45–60% average humidity and standard 12-h light cycles. All animal procedures were approved by the NIEHS Animal Care and Use Committee (ASP #2017-0022).
PFOA and GenX dosing solutions were prepared in RODI water and administered to mice once daily via oral gavage. Daily doses were administered between 0700 and 0800 hours and adjusted to the BW of the mouse based on the previous day’s weight at a volume of 0.01mL/g BW. […] The dose of 1mg/kg BW/d PFOA, used in the mouse developmental toxicity study of [Lau et al. 2006], provided a lowest effect dose that was used to set the reference dose within the U.S. EPA’s drinking water lifetime health advisory level (HAL) of 70 ppt PFOA ([U.S. EPA 2016]).
This experiment was conducted over two blocks (Block 1 and Block 2) to achieve a total of n=11–13 litters per treatment group and sacrifice time point (E11.5 and E17.5). The experimental design of the second block was identical to the first block of the study, and experimental methods were similar but expanded upon to include more rigorous and detailed measurements. Copulatory plug–positive mice (E0.5) were weighed to obtain a baseline BW and placed into one of five groups. Once all mice were assigned to groups, mean BWs were calculated, and a few animals were reassigned so that mean BWs in each group were similar. This was done to avoid confounding effects of baseline BW. Treatment groups were then randomly assigned a color by using a random sequence generator. Experimenters and dosing technicians were blinded to the treatment group to which the color groups corresponded throughout the duration of the study, including at necropsy. […] Pregnant dams were dosed via oral gavage from E1.5 to E11.5 or from E1.5 to E17.5. […] The E11.5 early-gestation time point was selected because it overlaps a critical period of placental development in the mouse where the placenta undergoes vascularization with the uterine wall and chorioallantoic branching of vessels begins ([Watson and Cross 2005]). The E17.5 late-gestation time point was selected so that embryo weight changes that may be related to treatment would be evident.
(§1) On the day of necropsy, dams received daily oral gavage between 0700 and 0800 hours and were weighed and then euthanized humanely by swift decapitation, and serum was collected. In Block 1, necropsies were completed from 0800 to 1600 hours, and in Block 2, necropsies were completed from 0800 to 1200 hours. Serum from dams euthanized in Block 1 was snap frozen for internal dosimetry analyses. Serum and urine from Block 2 dams were reserved for clinical chemistry analyses. In both blocks, the uterus was removed, and total implantation sites were counted based on gross observation of an implantation nodule along the uterine horn. Viable embryos, nonviable embryos, and sites of resorption were counted based on gross observation. Embryos were considered viable if they were properly formed, were not pale in color, and were of similar size to neighboring embryos. Embryos that were poorly formed and pale in color (without heartbeat) were considered nonviable. Sites of resorption were defined as a dark red–appearing clot-like nodule apparent on gross observation.
From each uterus, first, viable embryos and their matched placentas were collected in succession within a horn and immediately snap frozen ( n=2–5 per litter ), and subsequent embryos were collected for growth measurements ( n=2–11 per litter ). […]

[2] = Litter parameters at necropsy (implantation sites, resorptions, viable and nonviable embryos); settings: female, CD-1, mouse, in vivo, oral, percent of implantation sites
Procedure: as §1

Pregnant CD-1 mice [3] = test: as above; settings: for % nonviable / % resorbed: percent of implantation sites
Procedure: as §1

N.O=C(O)C(F)(OC(F)(F)C(F)(F)C(F)(F)F)C(F)(F)F (stereo not drawn) [GenX, ammonium 2,3,3,3-tetrafluoro-2-(heptafluoropropoxy)propanoate]
Kidney weight (Pregnant CD-1 mice [1]; E11.5, 2 mg/kg/d): 0.22 ± 0.02 g
Liver weight (Pregnant CD-1 mice [1]; E11.5, 2 mg/kg/d): 3.1 ± 0.2 g
Weight at necropsy (Pregnant CD-1 mice [1]; E11.5, 2 mg/kg/d): 38.3 ± 3.2 g
Weight at necropsy (% change from E0.5) (Pregnant CD-1 mice [1]; E11.5, 2 mg/kg/d): 28.9±5.4%
Kidney weight (Pregnant CD-1 mice [1]; E11.5, 10 mg/kg/d): 0.23 ± 0.06 g
Liver weight (Pregnant CD-1 mice [1]; E11.5, 10 mg/kg/d): 4.2 ± 0.5 g
Weight at necropsy (Pregnant CD-1 mice [1]; E11.5, 10 mg/kg/d): 40.0 ± 2.5 g
Weight at necropsy (% change from E0.5) (Pregnant CD-1 mice [1]; E11.5, 10 mg/kg/d): 32.3±9.6 %
E0.5 weight (Pregnant CD-1 mice [1]; E11.5 group, 2 mg/kg/d): 29.7 ± 2.2 g
E0.5 weight (Pregnant CD-1 mice [1]; E11.5 group, 10 mg/kg/d): 30.7 ± 2.5 g
Kidney weight (Pregnant CD-1 mice [1]; E17.5, 2 mg/kg/d): 0.21 ± 0.02 g
Liver weight (Pregnant CD-1 mice [1]; E17.5, 2 mg/kg/d): 3.5 ± 0.5 g
Weight at necropsy (Pregnant CD-1 mice [1]; E17.5, 2 mg/kg/d): 55.4 ± 6.5 g
Weight at necropsy (% change from E0.5) (Pregnant CD-1 mice [1]; E17.5, 2 mg/kg/d): 97.3±15.2%
Kidney weight (Pregnant CD-1 mice [1]; E17.5, 10 mg/kg/d): 0.25 ± 0.02 g
Liver weight (Pregnant CD-1 mice [1]; E17.5, 10 mg/kg/d): 4.6 ± 0.4 g
Weight at necropsy (Pregnant CD-1 mice [1]; E17.5, 10 mg/kg/d): 56.7 ± 5.5 g
Weight at necropsy (% change from E0.5) (Pregnant CD-1 mice [1]; E17.5, 10 mg/kg/d): 98.5±15.7%
E0.5 weight (Pregnant CD-1 mice [1]; E17.5 group, 2 mg/kg/d): 28.2 ± 3.5 g
E0.5 weight (Pregnant CD-1 mice [1]; E17.5 group, 10 mg/kg/d): 28.7 ± 3.6 g
viability ([2]; 2 mg/kg/d, E11.5): 95 ± 6.2%
viability ([2]; 2 mg/kg/d, E17.5): 98.1 ± 4.6%
viability ([2]; 10 mg/kg/d, E11.5): 92.4 ± 9.3%
viability ([2]; 10 mg/kg/d, E17.5): 96.5 ± 5.3%
No. dead embryos (Pregnant CD-1 mice [3]; E11.5, 2 mg/kg/d): 0.0 ± 0.0
No. implantation sites (Pregnant CD-1 mice [3]; E11.5, 2 mg/kg/d): 14.7 ± 2.7
No. resorptions (Pregnant CD-1 mice [3]; E11.5, 2 mg/kg/d): 0.7 ± 0.8
No. viable embryos (Pregnant CD-1 mice [3]; E11.5, 2 mg/kg/d): 14.0 ± 2.9
No. dead embryos (Pregnant CD-1 mice [3]; E11.5, 10 mg/kg/d): 0.1 ± 0.3
No. implantation sites (Pregnant CD-1 mice [3]; E11.5, 10 mg/kg/d): 14.8 ± 3.7
No. resorptions (Pregnant CD-1 mice [3]; E11.5, 10 mg/kg/d): 0.9 ± 1.3
No. viable embryos (Pregnant CD-1 mice [3]; E11.5, 10 mg/kg/d): 13.8 ± 3.7
No. dead embryos (Pregnant CD-1 mice [3]; E17.5, 2 mg/kg/d): 0.1 ± 0.3
No. implantation sites (Pregnant CD-1 mice [3]; E17.5, 2 mg/kg/d): 13.8 ± 2.0
No. resorptions (Pregnant CD-1 mice [3]; E17.5, 2 mg/kg/d): 0.2 ± 0.6
No. viable embryos (Pregnant CD-1 mice [3]; E17.5, 2 mg/kg/d): 13.5 ± 2.1
No. dead embryos (Pregnant CD-1 mice [3]; E17.5, 10 mg/kg/d): 0.0 ± 0.0
No. implantation sites (Pregnant CD-1 mice [3]; E17.5, 10 mg/kg/d): 12.5 ± 3.1
No. resorptions (Pregnant CD-1 mice [3]; E17.5, 10 mg/kg/d): 0.5 ± 0.7
No. viable embryos (Pregnant CD-1 mice [3]; E17.5, 10 mg/kg/d): 12.0 ± 3.0
% nonviable (Pregnant CD-1 mice [3]; E11.5, 2 mg/kg/d): 0.0 ± 0.0%
% resorbed (Pregnant CD-1 mice [3]; E11.5, 2 mg/kg/d): 5.0 ± 6.2%
% nonviable (Pregnant CD-1 mice [3]; E11.5, 10 mg/kg/d): 2.1 ± 7.2%
% resorbed (Pregnant CD-1 mice [3]; E11.5, 10 mg/kg/d): 5.6 ± 7.7%
% nonviable (Pregnant CD-1 mice [3]; E17.5, 2 mg/kg/d): 0.7 ± 2.4%
% resorbed (Pregnant CD-1 mice [3]; E17.5, 2 mg/kg/d): 1.2 ± 4.1%
% nonviable (Pregnant CD-1 mice [3]; E17.5, 10 mg/kg/d): 0.0 ± 0.0%
% resorbed (Pregnant CD-1 mice [3]; E17.5, 10 mg/kg/d): 3.5 ± 5.3%
